Assay results from patent publication US6605619B1, “Nitroxides as protectors against oxidatives stress” (The United States of America as represented by the …, priority 1992, dated 2003).
“Also recorded” adds a separate entry of the source. Marks after values point to notes of the source that are not given here.

B1: catalase: catalase (CAT), enzyme that can convert H2O2 to H2O (protein, UniProt P00432 2-527, looked up)
Catalase: ADNRDPASDQMKHWKEQRAAQKPDVLTTGGGNPVGDKLNSLTVGPRGPLLVQDVVFTDEMAHFDRERIPERVVHAKGAGAFGYFEVTHDITRYSKAKVFEHIGKRTPIAVRFSTVAGESGSADTVRDPRGFAVKFYTEDGNWDLVGNNTPIFFIRDALLFPSFIHSQKRNPQTHLKDPDMVWDFWSLRPESLHQVSFLFSDRGIPDGHRHMNGYGSHTFKLVNANGEAVYCKFHYKTDQGIKNLSVEDAARLAHEDPDYGLRDLFNAIATGNYPSWTLYIQVMTFSEAEIFPFNPFDLTKVWPHGDYPLIPVGKLVLNRNPVNYFAEVEQLAFDPSNMPPGIEPSPDKMLQGRLFAYPDTHRHRLGPNYLQIPVNCPYRARVANYQRDGPMCMMDNQGGAPNYYPNSFSAPEHQPSALEHRTHFSGDVQRFNSANDDNVTQVRTFYLKVLNEEQRKRLCENIAGHLKDAQLFIQKKAVKNFSDVHPEYGSRIQALLDKYNEEKPKNAVHTYVQHGSHLSAREKANL

Assays:
[1] = EPR signal of nitroxides exposed to O2 flux formed by HX/XO (spin-loss); type: biochemical
Protocol: For EPR experiments, samples (0.05-0.1 ml) either of solutions of chemicals or cell suspensions were drawn by a syringe into a gas-permeable teflon capillary of 0.8 mm inner diameter, 0.05 mm wall thickness (Zeus Industrial Products, Inc. Raritan, N.J.). Each capillary was folded twice, inserted into a narrow quartz tube which was open at both ends (2.5 mm ID), and then placed horizontally into the EPR cavity. During the experiments, gases of desired compositions were blown around the sample without having to disturb the alignment of the tube within the EPR cavity. EPR spectra were recorded in a Varian E4 (or E9) X-band spectrometer, with field set at 3357 G, modulation frequency of 100 KHz, modulation amplitude of 1 G and non-saturating microwave power. The EPR spectrometer was interfaced to an IBM-PC through an analog-to-digital converter and a data translation hardware (DT2801) and the spectra were digitized using commercial acquisition software, enabling subtraction of background signals. To study the kinetics of the spin-loss, the spectra were deliberately overmodulated, and the magnetic field was kept constant while the intensity of the EPR signal was followed.

[2] = SOD-inhibitable ferricytochrome c reduction assay, rate constants of reaction with O2 (SOD-like activity); type: biochemical; details: low ionic strength (10 mM HEPES), pH 7.0, 22° C.
Source text: As a further check, the reaction of representatives of both 5- and 6-membered cyclic nitroxides with O2 was studied. The SOD-inhibitable ferricytochrome c reduction assay (Fridovich, Handbook of Methods for Oxygen Radical Research, 213-215, 1985) was used to determine rate constants of reaction with O2. […] The reaction was started by adding 0.01 U/ml XO and the rate of ferricytochrome c reduction, in the absence (V) and in the presence (v) of various nitroxides, was spectrophotometrically followed at 550 nm. Both reference and sample cuvettes contained all the reagents, with the reference cuvette containing 100 units/ml SOD, thereby eliminating spurious reactions from interfering with the determination of rate constants. Data were analyzed by plotting V/v as a function of [nitroxide] and k1 was calculated, knowing kCytC+superoxide, according to:
(V/v)−1=k1x[nitroxide]/kCytC+superoxidex[Cyt−c^III].

V79 cells = test: Cytotoxicity of the agents alone, clonogenic assay; type: cell-based, Chinese hamster; details: concentrations used: catalase 100 U/ml; SOD 100 μg/ml; DF 500 μM; nitroxides 5 mM
Protocol: For subsequent studies, the most lipophilic nitroxide, CHD, and the most hydrophilic one, TEMPOL, were chosen.
Chinese hamster V79 cells were grown in F12 medium supplemented with 10% fetal calf serum, penicillin, and streptomycin. Survival was assessed in all studies by the clonogenic assay. The plating efficiency range between 80-90%. Stock cultures of exponentially growing cells were trypsinized, rinsed, and plated (5×10^5 cells/dish) into a number of 100 mm petri dishes and incubated 16 h at 37° C. prior to experimental protocols. Cells were exposed for 1 h at 37° C. to either 0.5 mM hypoxanthine (HX)+0.05 U/ml of xanthine oxidase (XO) for varying lengths of time, or to H2O2 at different concentrations. To assess possible modulation in cytotoxicity, catalase, 100 U/ml; SOD, 100 μg/ml; DF, 500 μM; and 5 mM of each of the nitroxides from Table 1 were added to parallel cultures. CHD was prepared in a stock solution in ethanol and diluted into medium such that the final concentration was 5 mM. […] TEMPOL is water soluble and was prepared directly in tissue culture medium. […] Following treatment, cells were rinsed, trypsinized, counted, and plated for macroscopic colony formation. […] Plates were incubated 7 days, after which colonies were fixed with methanol/acetic acid, stained with crystal violet, and counted. Colonies containing >50 cells were scored. […]

[3] = system: Chinese hamster V79 cells; test: Protection of cells exposed to HX/XO, clonogenic survival; type: cell-based; details: 0.05 U/ml XO + 0.5 mM HX, 37° C.; 5 mM nitroxide; 100 U/ml catalase; SOD; 500 μM DF preincubated 2 h
Protocol: Chinese hamster V79 cells were grown in F12 medium supplemented with 10% fetal calf serum, penicillin, and streptomycin. Survival was assessed in all studies by the clonogenic assay. The plating efficiency range between 80-90%. Stock cultures of exponentially growing cells were trypsinized, rinsed, and plated (5×10^5 cells/dish) into a number of 100 mm petri dishes and incubated 16 h at 37° C. prior to experimental protocols. Cells were exposed for 1 h at 37° C. to either 0.5 mM hypoxanthine (HX)+0.05 U/ml of xanthine oxidase (XO) for varying lengths of time, or to H2O2 at different concentrations. To assess possible modulation in cytotoxicity, catalase, 100 U/ml; SOD, 100 μg/ml; DF, 500 μM; and 5 mM of each of the nitroxides from Table 1 were added to parallel cultures. CHD was prepared in a stock solution in ethanol and diluted into medium such that the final concentration was 5 mM. […] TEMPOL is water soluble and was prepared directly in tissue culture medium. […] DF was added either 2 h prior to or during treatment while the other agents were present only during HX/XO or H2O2 treatment. Following treatment, cells were rinsed, trypsinized, counted, and plated for macroscopic colony formation. For each dose determination cells were plated in triplicate and the experiments were repeated a minimum of two times. Plates were incubated 7 days, after which colonies were fixed with methanol/acetic acid, stained with crystal violet, and counted. Colonies containing >50 cells were scored. Error bars represent S.D. of the mean and are shown when larger than the symbol.

[4] = system: Chinese hamster V79 cells; test: Protection of cells exposed to H2O2, clonogenic survival; type: cell-based; details: H2O2 for 1 h, 37° C., full medium; 5 mM nitroxide; 100 U/ml catalase; 100 μg/ml SOD; 500 μM DF preincubated 2 h
Protocol: Chinese hamster V79 cells were grown in F12 medium supplemented with 10% fetal calf serum, penicillin, and streptomycin. Survival was assessed in all studies by the clonogenic assay. The plating efficiency range between 80-90%. Stock cultures of exponentially growing cells were trypsinized, rinsed, and plated (5×10^5 cells/dish) into a number of 100 mm petri dishes and incubated 16 h at 37° C. prior to experimental protocols. Cells were exposed for 1 h at 37° C. to either 0.5 mM hypoxanthine (HX)+0.05 U/ml of xanthine oxidase (XO) for varying lengths of time, or to H2O2 at different concentrations. To assess possible modulation in cytotoxicity, catalase, 100 U/ml; SOD, 100 μg/ml; DF, 500 μM; and 5 mM of each of the nitroxides from Table 1 were added to parallel cultures. CHD was prepared in a stock solution in ethanol and diluted into medium such that the final concentration was 5 mM. […] TEMPOL is water soluble and was prepared directly in tissue culture medium. […] DF was added either 2 h prior to or during treatment while the other agents were present only during HX/XO or H2O2 treatment. Following treatment, cells were rinsed, trypsinized, counted, and plated for macroscopic colony formation. […] Plates were incubated 7 days, after which colonies were fixed with methanol/acetic acid, stained with crystal violet, and counted. Colonies containing >50 cells were scored. […]

DNA-Fe(II) = test: Reaction of nitroxide with DNA-Fe(II), EPR spin-loss and OD353nm; type: biochemical, Salmon; details: TEMPOL hypoxically mixed with DNA-Fe(II)
Protocol: All solutions always contained 0.1 mg/ml Salmon DNA. The appearance of DNA-Fe(III) was spectrophotometrically monitored at 353 nm, whereas the spin-loss of CHD was monitored by following its EPR signal. To study the time-dependence of ΔOD353nm (∘), 1 mM CHD was mixed with 0.1 mM Fe(II). To follow the spin-loss of CHD (□), 1 mM Fe(II) was mixed with 0.1 mM CHD.
It was also questioned whether the aerobic and hypoxic protection by CHD to H2O2 exposure was a result of CHD directly accepting electrons from ferrous ions, thereby preventing generation of .OH. Because cellular iron is chelated, the possible reaction of nitroxide with chelated iron(II) was examined by repeating the experiment in the presence of DNA. To study the possibility of nitroxide-induced oxidation of transition metals, CHD was hypoxically mixed with iron(II) in the presence of 0.1 mg/ml Salmon DNA. Consequently, DNA-Fe(III) was formed and the nitroxide EPR signal disappeared. The reaction kinetics were investigated by maintaining either CHD or Fe(II) in excess while the absorbance due to DNA-Fe(III) and the nitroxide spin-loss were monitored respectively (FIG. 6). Both the decay of the EPR signal and the appearance of the OD353nm obeyed pseudo 1st order kinetics from which the 2nd order reaction rate constant was calculated as 44 M^−1s^−1 or 33 M^−1s^−1 using the data from EPR or optical absorption, respectively.

[5] = system: Chinese hamster V79 cells; test: In vitro protection against ionizing radiation, clonogenic survival; type: cell-based; details: 100 mM TEMPOL 10 min prior to irradiation
C3H mice [6] = test: Protection of mice against whole body radiation, 30 day survival; type: in vivo
Protocol: Controls were given saline.
Controls were given saline. Survival was recorded 30 days after exposure to radiation. The LD50(30) refers to that dose of radiation at which 50% of the mice survived 30 days after exposure.

C3H mice [7] = test: Nitroxide-induced weight loss, chronic oral administration in drinking water; type: in vivo; details: 10 mg per ml in drinking water
Source text: Thus, nitroxide given over extended periods appears to cause weight loss in animals.

kidneys of mice = test: Post-irradiation protection after local kidney irradiation, weight gain and kidney histology; type: in vivo; details: 28 weeks
Protocol: This hypothesis has been tested in experiments where both kidneys of mice were locally irradiated with single, acute doses of radiation. […] At 28 weeks after irradiation, the animals were sacrificed, and histological analysis was performed on their kidneys to assess damage.

[8] = comparison value for native SOD; cited from earlier work

Molecule | Steady state EPR signal (%) ([1]; % from total R′RNO + R′RNOH after exposure to 5 mM HX + 0.03 U/ml XO in air-saturated PBS pH 7.2) | effect of O2 on the EPR signal ([1]; exposure to O2 flux formed by HX/XO) | kR′RNO + O2 [2] | cytotoxicity of agent alone (V79 cells) | cell survival / protection from HX/XO [3] | protection against H2O2 cytotoxicity [4] | 2nd order reaction rate constant with DNA-Fe(II) (DNA-Fe(II)) [M⁻¹ s⁻¹] | extent of protection against irradiation [5] | toxicity in irradiated mice (C3H mice [6]; 275 mg/kg intraperitoneally) | increase of LD50(30) (C3H mice [6]; 275 mg/kg intraperitoneally 10 min prior to whole body radiation 3 Gy to 13 Gy, versus saline controls) | toxicity on chronic oral administration (C3H mice [7]; >3 weeks) | reduction of weight compared to controls (C3H mice [7]; chronic oral administration (>3 weeks)) [%] | kidney histology, TEMPOL alone (kidneys of mice; no radiation) | kidney histology, 24 Gy plus TEMPOL (kidneys of mice; single dose 24 Gy, oral TEMPOL two weeks post-irradiation) | kcat of native SOD [8] [M⁻¹ s⁻¹]
CC1(C)CC(O)CC(C)(C)N1[O] [TEMPOL, 4-hydroxy-2,2,6,6-tetramethylpiperidine-1-oxyl] | 100 | no effect | 3.4 × 10^5 M − 1^s − 1 | Neither catalase, SOD, DF, CHD, nor TEMPOL were cytotoxic alone | fully protected | fully protected; also recorded: complete protection | 40 | approximately 2.5 fold | no toxicity | approximately 25% | no apparent toxicity | 12.5 | identical to a section from a kidney of a control animal | protection against glomerular sclerosis and tubular cell loss | –
SOD: superoxide dismutase (SOD), obtained from Sigma | – | – | – | – | not altered | – | – | – | – | – | – | – | – | – | 2.3e+09
B1 | – | – | – | – | complete protection | – | – | – | – | – | – | – | – | – | –
